Results as given in paper PMC8533176, “1,5-Benzodiazepin-2(3H)-ones: In Vitro Evaluation as Antiparkinsonian Agents” (Antioxidants, 2021).
Like-named read-outs stand apart in the source and are kept apart here.

Tests used:
SH-SY5Y cells [1] = assay: cells; type: cell-based, human; details: for EC50: MTT
[2] = ABTS radical scavenging assay; type: biochemical; details: for IC50: 30-min incubation; for ABTS Assay TEAC50: Equivalent antioxidant capacity at Trolox 50 mM; for ABTS Assay TEAC100: Equivalent antioxidant capacity at Trolox 100 mM
Procedure: The mixture was stored in the dark at room temperature for 16 h. […] All the compounds tested were dissolved in EtOH. […] The degree of decolorization was calculated as the percentage reduction of absorbance. […] Trolox was used as a reference antioxidant.

[3] = Ferric reducing antioxidant power (FRAP) assay; type: biochemical; set-up: FRAP Assay Trolox Equivalents: unit not given here; details: for FRAP Assay Antioxidant Capacity (%) at 100 uM: compound at 100 uM; for FRAP Assay Antioxidant Capacity (%) at 200 uM: compound at 200 uM
Procedure: FRAP reagent was prepared by mixing 10 mL of 300 mM acetate buffer with 1 mL of 10 mM 2,4,6-tripyridyl-S-triazine (TPTZ) in HCl 40 mM and 1mL of FeCl3·6H2O 20 mM. […] Trolox was used as assay control.

[4] = Kinetic solubility by UV spectrometry; type: physicochemical; details: PBS 50 mM, aqueous buffer, kinetic from dmso stock
Procedure: A modified protocol was used from that described by Hoelke et al. for the determination of the kinetic solubility from DMSO compound solutions. A compound calibration curve (compound concentration vs UV absorption) was prepared for each compound with concentrations of 10, 20, 50, 100, and 200 µM. Each compound dilution was carried out by pipetting defined volumes of a 20 mM stock compound solution in DMSO into vials and adding PBS 50 mM to reach a final volume of 1 mL/well. The final amount of DMSO per well was 2%. For the lower compound concentrations, an additional volume of DMSO was added to each well to reach 2% DMSO. Then, 200 µL of each dilution was transferred to a new 96-well culture plate for the measurement of the UV-spectra. One well in each row was left without a compound as a blank, and its UV absorbance was used as an offset correction. The experiments were performed in duplicate.
In parallel, compound saturation solutions were reached and filtered from 20 mM compound stock in DMSO: 10 µL of a 20 mM stock solution was dispensed into 190 µL of PBS 10 mM. The solutions were mixed, shaken on a microplate shaker for two hours, and then 160 µL of each solution was filtered and transferred to a new well plate for UV absorption measurement.
Measurement of the UV-spectra was performed using a Varioskan microplate reader, and spectra were taken in the range of 270–600 nm. Spectral bandwidth was set to 5 nm, and the data pint interval was 10 nm. The experiments were carried out in triplicate.

SH-SY5Y cells [5] = assay: Cytotoxicity, MTT assay, SH-SY5Y; type: cell-based; details: Homo sapiens, MTT, cytotoxicity, read-out: SH-SY5Y IC50
Procedure: (§1) All compounds tested were dissolved and eventually further diluted in dimethylsulfoxide (DMSO). After overnight incubation, the cells were treated with different compound concentrations (5, 10, 20, 50, 100, 150, 200 µM) in a final volume of 200 µL with four replicates each. […] Cell proliferation or viability was measured using the 3-(4,5-dimethylthiazol-2-yl)-2,5-diphenyl tetrazolium bromide (MTT) assay. The MTT assay was optimized taking into account the number of cells plated per well, to work in the linear part of the cell density vs. MTT absorbance calibration curve, which allows achieving a maximum absorbance in the range of 0.8–1.0 in each well at the end of the experiment. In addition to that, the number of cells seeded for each experiment was optimized in agreement with the time scale of the experiment.
(§2) After cell treatment, 20 µL of MTT (5 mg/mL) was added to each well, and the plate was incubated at 37 °C in the dark for 2 h. Supernatants were removed, and the formazan crystals were solubilized in DMSO (200 µL/well), under 10 min shaking at room temperature. The reduction of MTT was quantified by absorbance at 570 nm in a Varioskan microplate reader (Thermo Fisher Scientific, Vantaa, Finland). Effects of the test compounds on cell viability were calculated using cells treated with a vehicle as a control. For IC50 and LD50 calculations, the data were subjected to linear regression analysis, and the regression lines were plotted for the best fit. The IC50 (inhibition of cell viability) concentrations were calculated using the respective dose–response curves.

HepG2 cells = assay: Cytotoxicity, MTT assay, HepG2; type: cell-based; details: Homo sapiens, HepG2; MTT, cytotoxicity; read-out: HepG2 IC50
Procedure: as §1, §2

SH-SY5Y cells [6] = assay: LDH release under H2O2; type: cell-based, human; details: H2O2 250 µM 24 h; compounds 24 h before; Figure 9
[7] = Chemical reactivity with H2O2; type: physicochemical; details: H2O2 500 µM, 37 °C, 4 h, DMEM:F12 without cells
Procedure: In our case, before running the protection experiments under oxidative stress conditions, we carried out experiments to assess the potential reactivity of compounds 9, 11, 13, and 18 at four different concentrations (5, 10, 20, and 40 µM) with H2O2 500 µM at 37 °C for 4 h in DMEM:F12 (without phenol red, FBS, and cells). Curcumin was used as a control compound.

SH-SY5Y cells [8] = assay: Neuroprotection against H2O2-induced oxidative stress, MTT; details: H2O2 250 µM 24 h; compounds 5-50 µM 24 h before; Figure 8
SH-SY5Y cells [9] = assay: Neuroprotection in the 6-OHD neurotoxicity-induced model, MTT; type: cell-based, human; details: 6-OHD 250 µM 48 h; compounds 24 h before
SH-SY5Y cells [10] = assay: Neuroprotection in the MPP+ neurotoxicity-induced model, MTT; type: cell-based, human; details: MPP+ 700 µM 48 h; compounds 24 h before
SH-SY5Y cells [11] = assay: Intracellular ROS levels (DCFH2-DA); type: cell-based, human; details: 400 µM H2O2 4 h; compounds 24 h before
Procedure: Intracellular ROS levels were determined using dichlorofluorescein diacetate (DCFH2-DA) according to Wang et al.. DCFH2-DA is cleaved by intracellular esterases and is oxidized by ROS to form the fluorescent compound DCF, which represents the ROS level. Therefore, 3 × 10^3 SH-SY5Y cells were seeded in 96-well culture black clear bottom plates and after 24 h were treated with the test compound for an additional 24 h. Then, they were exposed to H2O2 for 4 h. After the incubation period, cells were washed twice with Hanks buffer and loaded with 20 µM DCFH2-DA (in FBS-free culture medium) for 40 min in dark at 37 °C in a CO2 incubator. At the end of the dye incubation period, they were washed twice with Hanks buffer to remove the extracellular DCFH2-DA. Fluorescence was measured with a Varioskan microplate reader at λex = 485 nm and λem = 535 nm wavelengths. Results are expressed as a percentage of the fluorescent increase compared with that of the control. All the experiments were performed at least three times in quadruplicate for each compound concentration.

SH-SY5Y cells [12] = assay: Mitochondrial membrane potential (JC-1); type: cell-based, human; details: 400 µM H2O2 4 h; compounds 24 h before at different concentrations
Procedure: The fluorescent dye 5,5′,6,6′-tetrachloro-1,1′,3,3′-tetraethylbenzimidazolylcarbocyanine iodide (JC-1) was used for measuring MMP [89]. A decrease in fluorescence intensity represents mitochondrial membrane depolarization. For fluorescence ratio detection under oxidative stress conditions, 96-well culture black clear bottom plates were seeded with 3 × 10^3 SH-SY5Y cells, and after 24-h incubation, they were treated with the test compound and left out for 24 h. Then, the cells were exposed to different H2O2 concentrations for 4 h. After the incubation period, the cells were washed twice with Hanks buffer and then stained with 5 µM JC-1 in culture media in the dark in a CO2 incubator at 37 °C for 20 min. At the end of the dye incubation period, cells were washed three times with Hanks buffer, and 200 µL of fresh buffer was added. Cells were analyzed with a Varioskan microplate reader. J-aggregate red fluorescence intensity was measured at λex = 535 nm and λem = 595 nm, while λem = 485 nm and λem = 535 nm was used for J-monomer green fluorescence. Results were expressed as the ratio of fluorescence intensity of J-aggregates to J-monomers. All the experiments were performed three times in quadruplicate for each compound concentration.

SH-SY5Y cells [13] = assay: Resazurin cell viability assay under H2O2; type: cell-based, human; details: 24-h incubation, resazurin

Row | SMILES | IC50 [2] | ABTS Assay TEAC50 [2] | ABTS Assay TEAC100 [2] | FRAP Assay Trolox Equivalents [3] | FRAP Assay Antioxidant Capacity (%) at 100 uM [3] | FRAP Assay Antioxidant Capacity (%) at 200 uM [3] | solubility [4] | IC50 (SH-SY5Y cells [5]) | IC50 (HepG2 cells) | Reaction with H2O2 [7] | melting point | other results
1 | NCCc1cc(O)c(O)cc1O [Compound 6-OHD, 6-hydroxydopamine] | – | – | – | – | – | – | – | – | – | – | – | EC50 (SH-SY5Y cells [1]; Homo sapiens, SH-SY5Y, 6-OHD 48 h, read-out: concentration at which the cell viability was reduced by 50%): 250 µM
2 | O=C1CC(c2ccccc2)=Nc2cc(F)c(F)cc2N1 [Compound 9, 7,8-Difluoro-4-phenyl-1H-1,5-benzodiazepin-2(3H)-one] | 432 ± 68 µM | 0.36 | 0.18 | 0.43 | 21.9% | 37.1% | < 50 µM | > 250 µM | > 250 µM | did not show any significant reaction | – | LDH leakage (SH-SY5Y cells [6]): reduced LDH leakage to some degree
3 | O=C1CC(c2ccccc2)=Nc2ccc(F)cc2N1 [Compound 11, 8-Fluoro-4-phenyl-1H-1,5-benzodiazepin-2(3H)-one] | 306 ± 34.6 µM | 0.35 | 0.17 | 0.56 | 28.9% | 49.8% | < 20 µM | > 250 µM | > 250 µM | did not show any significant reaction | – | Neuroprotection effect, cell viability (MTT) (SH-SY5Y cells [8]): high variable neuroprotection results at concentrations higher than 10 µM
4 | O=C1CC(c2ccccc2)=Nc2cc(F)ccc2N1 [Compound 13, 7-Fluoro-4-phenyl-H-1,5-benzodiazepin-2(3H)-one] | 325 ± 55 µM | 0.36 | 0.19 | 0.79 | 40.7% | 61.6% | < 20 µM | > 250 µM | > 250 µM | did not show any significant reaction | 205.7 °C | –
5 | COc1cc(C2=Nc3ccccc3NC(=O)C2)cc(OC)c1OC [Compound 20, 4-(3,4,5-Trimethoxyphenyl)-1H-1,5-benzodiazepin-2(3H)-one] | 269 ± 27.2 µM | 0.34 | 0.18 | 0.90 | 48.1% | 63.8% | > 200 µM | > 250 µM | > 250 µM | – | – | LDH leakage (SH-SY5Y cells [6]): reduced LDH leakage to some degree; Neuroprotection, cell viability (MTT), 6-OHD model (SH-SY5Y cells [9]): significant neuroprotection; Neuroprotection, cell viability (MTT), MPP+ model (SH-SY5Y cells [10]): dose-dependent neuroprotection; Intracellular ROS level reduction (SH-SY5Y cells [11]): lower ROS decrease; MMP recovery (SH-SY5Y cells [12]): 10–25%; Neuroprotection effect, cell viability (MTT) (SH-SY5Y cells [8]): significantly improved
6 | COc1cc(C2=Nc3cc(C)c(C)cc3NC(=O)C2)cc(OC)c1OC [Compound 21, 7,8-Dimethyl-4-(3,4,5-trimethoxyphenyl)-1H-1,5-benzodiazepin-2(3H)-one] | 137 ± 5.3 µM | 0.36 | 0.21 | 0.89 | 47.2% | 60.9% | < 100 µM | > 250 µM | > 250 µM | – | 208.5 °C | –
7 | COc1cc(C2=Nc3cc(F)c(F)cc3NC(=O)C2)cc(OC)c1OC [Compound 22, 7,8-Difluoro-4-(3,4,5-trimethoxyphenyl)-1H-1,5-benzodiazepin-2(3H)-one] | > 500 µM | – | – | 0.30 | 15.7% | 13.7% | < 100 µM | > 250 µM | > 250 µM | – | 241.8 °C | –
8 | OO [Compound H2O2, hydrogen peroxide, reference compound] | – | – | – | – | – | – | – | – | – | – | – | H2O2 lethal dose (LD50 / EC50), resazurin method (SH-SY5Y cells [13]): 268 µM; H2O2 lethal dose (LD50 / EC50) (SH-SY5Y cells [1]): 250 µM
9 | C[n+]1ccc(-c2ccccc2)cc1 [MPP^+, 1-Methyl-4-phenylpyridinium] | – | – | – | – | – | – | – | – | – | – | – | EC50 (SH-SY5Y cells [1]; MPP+ 48 h, read-out: concentration that resulted in 50% cell viability): 700 µM
